The results in this text go back to patent US20140199714A1, “METHOD FOR DETECTING CANCER CELLS METASTASIZING INTO SENTINEL LYMPH NODE” (SHINSHU UNIVERSITY, priority 2008, published 2014).

The assay concerns ICAM-1 mRNA in human LECs. Nature of the assay: Quantitative RT-PCR of ICAM-1 mRNA in human LECs. The format is cell-based. The method, then: The 0 hr., 1 hr., 4 hrs. and 18 hrs. expressions of ICAM-1 mRNA were evaluated by quantitative reverse transcription polymerase chain reaction (RT-PCR) for ICAM-1 cDNA. The total RNA was extracted from the cultured human LECs using ISOGEN reagent (available from Nippon Gene Co., Ltd., Japan) according to the manufacturer's instructions. The concentration of each RNA was calculated using 260 nm absorbance with a spectrophotometer. The extracted RNA was reverse-transcribed with M-MLV reverse transcriptase (available from Ambion Inc., US). For RT-PCR analysis, each superscript first-strand synthesis kit (available from Invitrogen Corporation, US) was used with 1.0 μg of the total RNA. Forward and reverse primers of ICAM-1 and cyclophilin A were used for each specific probe, respectively as follows; ICAM-1 (available from TAKARA BIO INC., Japan), and cyclophilin A:
The cDNA was diluted 5-fold prior to PCR amplification. Quantitative RT-PCR was performed using a LIGHT CYCLER rapid thermal cycler system (available from Roche Diagnostics Limited, UK). Reactions were performed in a 20 μL volume with 0.5 μM primers, TAQ DNA POLYMERASE, and the buffer was included in the SYBR PREMIX EX TAQ (available from TAKARA BIO INC., Japan; SYBR is a registered trademark). The PCR protocol included 10 secs. of denaturation step followed by 45 cycles of 95° C. denaturation for 5 secs. and 60° C. annealing for 20 secs. The fluorescent product was detected at the end of the 72° C. extension period. Negative controls included PCR reactions with cDNA omitted. To confirm amplification specificity, PCR products from each primer pair were subjected to melting curve analysis. Quantification data was analyzed with LIGHT CYCLER analysis software. The results are presented as normalized ratio of the expression of ICAM-1 mRNA to cyclophilin A.

As to CCL2: chemokine CCL2, the “expression of ICAM-1 mRNA (ratio to cyclophilin A)” value (10 ng/mL CCL2, 1 hr. after the stimulation) is “significantly increased”; the “expression of ICAM-1 mRNA (ratio to cyclophilin A)” value (10 ng/mL CCL2, around 4 hrs. after the stimulation) is listed as “maximal level”; the “expression of ICAM-1 mRNA (ratio to cyclophilin A)” value (10 ng/mL CCL2, up to 18 hrs. after the stimulation) is “increased slightly”.
